Data: US7094760B2, “Peptides for treatment of inflammation and shock” (Salpep Biotechnology, Inc., priority 1996, dated 2006)

Key:
[1] = system: human neutrophils; assay: superoxide anion production in vitro, human neutrophils; format: cell-based; conditions: for superoxide anion production: 10^−7M PMA
Experimental: (§1) Neutrophils (10^6) were suspended in PBS buffer of the following composition: NaCl 137 mM, KCl 2.7 mM, Na2HPO4, 8.1 mM, KH2PO4 1.47 mM, CaCl2 1.19 mM, MgCl2 0.54 mM, glucose 7.5 mM and cytochrome C 1.5 mM (Sigma Chemical Co. St. Louis, […].) incubated at 37 C. Each sample was read along with a reference sample containing 1440 units of superoxide dismutase (Sigma) in a spectrophotometer (Hitachi, U200 spectrophotometer). The rate of superoxide production in response to 10^−7M phorbol myristate acetate (PMA) or 10^−5 M N-formyl-methionyl-leucyl-phenylalanine (fMLP) was then inferred from the slope. (Derian et al., (1996), Biochemistry 35(4): 1265–9).
(§2) Neutrophils obtained either from carrageenin-soaked sponges implanted subcutaneously in rats, or from the blood of healthy human volunteers, were preincubated with various doses of SGP-T for 30 minutes, then stimulated with 10^−7M PMA and the rate of superoxide anion production determined. At doses less than 1 μM, SGP-T inhibited superoxide anion production by both rat and human neutrophils, although the rat neutrophils were approximately 10-fold less sensitive than human neutrophils to this inhibitor effect (FIG. 6). At higher doses of the peptide(>1 μM), an enhancement of superoxide anion production was evident with human neutrophils.
(§3) At 0.001 and 0.01 μM SGP-T, O2^− production was inhibited by 15 to 20% in human neutrophils, while 10-fold higher concentrations were required for such inhibition with rat neutrophils. Much higher concentrations of SGP-T (10 and 20 μM) stimulated O2^− production by human neutrophils. Each value is presented as the mean ±SEM, and the number of experiments was between 6 and 12.

[2] = system: Sprague-Dawley rats sensitized with Nippostrongylys brasiliensis; assay: antigen-induced anaphylactic hypotension, Nippostrongylus brasiliensis-sensitized rats; format: in vivo, rat; conditions: given 10 minutes prior to worm antigen (100 worm equivalents)
Experimental: The effect of SGP-T on antigen-induced anaphylactic hypotension was examined in Sprague-Dawley rats sensitized 5 weeks previously with the nematode parasite Nippostrongylys brasiliensis. Under pentobarbital anesthesia, worm antigen (100 worm equivalents) was injected and arterial blood pressure was followed for 1 hour.

[3] = system: rat neutrophils; assay: superoxide anion production in vitro, rat neutrophils; format: cell-based
Experimental: as §1, §2, §3

NH2-Thr-Asp-Ile-Phe-Glu-Gly-Gly-COOH (H-TDIFEGG-OH) [SGP-T, submandibular gland peptide T, TDIFEGG]
O2− production ([1]; 10 and 20 μM): stimulated
superoxide anion production ([1]; doses less than 1 μM): inhibited
superoxide anion production ([1]; higher doses (>1 μM)): enhancement
protection against anaphylactic hypotension [2]: dose-dependently protected
superoxide anion production ([3]; doses less than 1 μM, 10^−7M PMA): inhibited
sensitivity of rat neutrophils relative to human neutrophils (less sensitive) ([3]; inhibition of superoxide anion production): approximately 10 fold
higher concentrations required for 15 to 20% inhibition versus human neutrophils ([3]; relative to 0.001 and 0.01 μM in human neutrophils): 10 fold
